Columns and labels:
[1] = tested on: metritis-causing organisms; assay: In vitro killing of bacteria in uterine discharge from a cow with confirmed metritis; assay type: cell-based
Procedure: In vitro testing: One-ml aliquots of uterine discharge from a cow with confirmed metritis were collected and diluted with 1 ml of water. The aliquots were incubated for 30 minutes at 37° C. either in the presence of 7.0% carbamide peroxide (test) or in the absence of carbamide peroxide (control). Bacteria from each treatment were washed and centrifuged, reconstituted in media, and plated on suitable culture media plates. The plates were incubated for three days. […] A similar experiment was conducted using urea in place of carbamide peroxide. The concentration of urea used was 11.3%. This is the equivalent amount of urea found in 4 urea boluses per 16 ounces of water, which is recommended for in vivo treatment using commercially available urea boluses.

[2] = tested on: postpartum cows with retained placenta; assay: Clinical trials of intrauterine bolus in cows having retained placenta; assay type: in vivo; details: single bolus containing 3.5 grams carbamide peroxide inserted in the uterus
Procedure: Efficacy of carbamide peroxide administration in treating retained placenta was tested in clinical trials with cows having retained placenta. A single bolus containing 3.5 grams carbamide peroxide was inserted in the uterus of postpartum cows with retained placenta.

[3] = tested on: cows diagnosed with metritis; assay: Clinical trials of intrauterine bolus in cows diagnosed with metritis; assay type: in vivo; details: single bolus containing 3.5 grams carbamide peroxide inserted in the uterus
Procedure: Efficacy of carbamide peroxide administration for treating metritis was tested in clinical trials with cows diagnosed with metritis. A single bolus containing 3.5 grams carbamide peroxide was inserted in the uterus of cows showing metritis symptoms such as foul uterine discharge. […] As no antibiotics were required in these cases, no milk had to be discarded. Because no milk was discarded, full financial benefit to the farmer was received for selling more milk than would have occurred if milk had to be discarded due to the presence of antibiotics. […] This indicates the carbamide peroxide administration is safe for use for the long term health of the cow and helps reduce subsequent reproduction failures.

[4] = tested on: cow diagnosed with severe metritis and vaginitis; assay: Uterine flush (wash format) in a cow with severe metritis and vaginitis; assay type: in vivo; details: two boluses comprising 3.5 g carbamide peroxide dissolved in 1 quart of water, uterus flushed; cow 5 days after calving
Procedure: Efficacy of carbamide peroxide administration in a wash format was tested with a cow diagnosed with severe metritis and vaginitis. A cow that had calved 5 days previously presented a foul smelling uterine discharge. Upon clinical examination, it was discovered that remnants of the placenta were still in the uterus and that the animal was off feed. Antibiotics were not preferred for treatment, as sale of milk from the cow was very important. (Antibiotic residue in milk is not permitted if sale of milk is to occur.) Two boluses comprising 3.5 g carbamide peroxide were dissolved in 1 quart of water, and the uterus of the cow was flushed out with the flush. Within 24-48 hours, the uterine discharge had cleared, the cow was on feed again, and placental remnants were gone. The animal was able to be milked easier than prior to treatment, and the cow was returned to normal service in good health. As no antibiotics were used, the milk was not required to be discarded, and the owner was able to make financial gain from the sale of the milk.

Structure (SMILES) | bacteria colonies on culture plates after treatment ([1]; 7.0% carbamide peroxide, 30 minutes at 37° C., plates incubated three days, control plates had hundreds of colonies) | foul uterine discharge after treatment [2] | shedding of retained placenta [2] | feed intake during the treatment [3] | need for follow-up with antibiotics [3] | subsequent conception and calving (long-term safety) [3] | uterine discharge (metritis symptom) [3] | time until uterine discharge had cleared, cow on feed again, placental remnants gone [4] [h] | bacteria colonies on culture plates after treatment ([1]; 11.3% urea in place of carbamide peroxide, similar experiment)
NC(N)=O.OO [carbamide peroxide] | no colonies were found | no foul uterine discharge | The next day, the retained placenta was shed naturally | did not go off feed | No follow-up with antibiotics were required | subsequently conceived safely and had healthy calves | improved and reduced quickly | 24 to 48 | 
NC(N)=O [urea, reference compound] |  |  |  |  |  |  |  |  | several bacterial colonies still being present
